# Results as given in patent publication US20260285924A1, “PEPTIDE THERAPEUTICS” (priority 2023, published 2026).
# Tests used:
# [1] = system: A-to-I RNA editing reporter (ADAR) in A375; test: A-to-I PepTile (REPTILE) screen: A-to-I editing of dsRNA hairpin reporter by NGS; type: cell-based, human; settings: for % A-to-I editing (IFNα): IFNα 6000 U/ml for 48 hours; for % A-to-I editing (Basal): no treatment
# Excerpt: (§1) FIGS. 12A-12D. A-to-I PepTile screen. (A) Composition of A-to-I PepTile linrary screen, and schematic description of the lentiviral expression vector. (B) Experimental workflow. A375 cells were transduced at low MOI, and then treated or not with IFNα for 48 hrs. RNA was extracted and Peptide_ADARreporter RNA species were amplified and sequenced by NGS. (C) Dot plot of A-to-I PepTile library effect on A-to-I editing with or without IFNα treatment. Red line is the mean A-to-I editing of all the 8088 peptides (>100 read counts) no treatment: 25.75% IFNα: 37.6%. (D) Dot plot of A-to-I PepTile library fitness effect upon IFNα for 48 hrs.
# FIGS. 17A-17F show A-to-I RNA Editing PiTile (REPTILE) screen in A375. (A) A-to-I RNA Editing PiTile (REPTILE) library design consist of fragmentation of all known ADAR1, ADAR2 interactors and all human double stranded RNA-binding protein into 40 amino acid long peptide. This library was then cloned into a lentivirus vector that also encode a DNA-encoded RNA loop reporter (A-to-I Rep) that is edited by ADAR proteins in cells at the RNA level. When the construct is expressed, the RNA loop gets edited on a single Adenosine, while the 40-mer peptide get expressed at the protein level. Then we can measure the impact of the peptide expression on the editing rate of the RNA loop reporter by sequencing (NGS and Sanger). (B) Experimental workflow of REPTILE screen in A375 cell line. Cells were transduced with the REPTILE library, and then treated for 48 hours with IFNα. Following the treatment, RNA was harvested, converted into cDNA and amplicon library containing peptide Identity (barcode) linked to the RNA loop reporter were prepared for NGS. (C) Result of the A375 REPTILE screen in the no treatment condition. Each dot represents a unique peptide that is associated with an A-to-I editing rate that was measured on the RNA loop. (D) Result of the A375 REPTILE screen in the IFNα condition. Each dot represents a unique peptide that is associated with an A-to-I editing rate that was measured on the RNA loop. Red line represent the A-to-I editing mean, Dash blue line represent 2 times the standard deviation of the % A-to-I editing across all the datasets. This cutoff was used to defined peptides hits that modulate RNA A-to-I editing. (E) Peptide A-to-I Inhibitor Hits intersection between no treatment (% A-to-I editing<15%) and IFNα (% A-to-I editing<27%) conditions. (F) Peptide A-to-I Enhancers Hits intersection between no treatment (% A-to-I editing>36%) and IFNα (% A-to-I editing>47%) conditions.
# Provided herein is a screening methodology to measure the effect of small peptide on A-to-I RNA editing in situ and screen thousands of peptides in a single experiment. First, a library of peptides with the potential of impairing A-to-I editing was designed and built. ADAR enzymes edit RNA only on double-stranded RNA structures and via ADAR's double stranded RNA-Binding Domain (dsRBD). […] The A-to-I PepTile library is composed of 19 Human proteins having dsRBD and 34 known protein-protein interactors of ADAR1/2. All these proteins were tiled into 40-mer peptides every 4 amino acids (FIG. 12A). To measure A-to-I editing, a biosensor consisting of a 71 bp dsRNA hairpin structure that gets A-to-I edited at a rate of 25% in A375 melanoma cells, and ~37% upon IFNα treatment was used. This A-to-I editing reporter is fused with DNA sequence encoding for a peptide from the A-to-I PepTile library. The A-to-I PepTile plasmid pool (10304 elements) was used to produced lentiviruses and transduced A375 cells at a low multiplicity of infection (MOI) (FIG. 12B). A part of the infected cells was treated with IFNα at 6000 U/ml for 48 hours, and then bulk RNA of the basal and treated condition was harvested. RNA was then retrotranscribed into cDNA and sequenced by Next-Generation Sequencing (NGS). […]
# [2] = system: A375 cells; test: A-to-I PepTile screen: fitness effect upon IFNα (PepTile abundance untreated vs treated); type: cell-based, human; settings: IFNα 6000 U/ml for 48 hours vs untreated
# Excerpt: as §1
# Provided herein is a screening methodology to measure the effect of small peptide on A-to-I RNA editing in situ and screen thousands of peptides in a single experiment. First, a library of peptides with the potential of impairing A-to-I editing was designed and built. ADAR enzymes edit RNA only on double-stranded RNA structures and via ADAR's double stranded RNA-Binding Domain (dsRBD). […] The A-to-I PepTile library is composed of 19 Human proteins having dsRBD and 34 known protein-protein interactors of ADAR1/2. All these proteins were tiled into 40-mer peptides every 4 amino acids (FIG. 12A). To measure A-to-I editing, a biosensor consisting of a 71 bp dsRNA hairpin structure that gets A-to-I edited at a rate of 25% in A375 melanoma cells, and ~37% upon IFNα treatment was used. This A-to-I editing reporter is fused with DNA sequence encoding for a peptide from the A-to-I PepTile library. The A-to-I PepTile plasmid pool (10304 elements) was used to produced lentiviruses and transduced A375 cells at a low multiplicity of infection (MOI) (FIG. 12B). A part of the infected cells was treated with IFNα at 6000 U/ml for 48 hours, and then bulk RNA of the basal and treated condition was harvested. RNA was then retrotranscribed into cDNA and sequenced by Next-Generation Sequencing (NGS). With the sequencing data, the A-to-I editing percentage of the RNA reporter for each PepTile is calculated since both elements are encoded on the same transcript. Moreover, with this screen one can also measure the abundance of the PepTiles between the untreated and treated conditions and determine Fitness score associated to every PepTile. To ensure a robust and more accurate A-to-I editing % estimation a cut-off of 100 read counts was set for each PepTile. […] SEQ ID NOs: 2125-2147 are A-to-I peptide inhibitors and SEQ ID NOs: 2148-2210 are A-to-I activators. In addition, 117 PepTiles were identified that either synergize (SEQ ID NOs: 2211-2243) or protect (SEQ ID NOs: 2244-2327) to IFNα-induced cell death (FIG. 12D and Table 5). These PepTiles are potential new therapeutic agents that can modulate the Interferon pathway. They may be beneficial in treating inflammatory conditions and may also enhance the effectiveness of cancer immunotherapy through synergistic effects.
Sequence,% A-to-I editing (IFNα) [1] [%],% A-to-I editing (Basal) [1] [%],Fitness Score IFNα [2]
MLEQCNTELKKYSHVNKKALDQFVNFSEQKEKLIKRQEELD [SMC3_243],47.01,42.74,-0.61
MLPERLEVNGRESEEENLNKSEISQVFEIALKRNLPVNFEV [STAU1_42],18.40,11.00,0.46
MLRYFDEKELELMLCGMQEIDMSDWQKSTIYRHYTKNSKQI [WWP2_185],25.97,13.42,-0.08
MMGGPLPPHLALKAENNSEVGASGYGVPGPTWDRGANLKDY [DHX9_28],54.35,49.65,1.46
MNKSEISLVFEIALKRNMPVSFEVIKESGPPHMKSFVTRVS [STAU2_44],23.54,6.78,0.07
MNMMLFEVVKMGKSAMQSVVDDWIESYKHDRDIALLDLINF [STAG2_21],58.92,43.58,0.65
MPLRGWPLELLCEKSIGTANRPMGAGEALRRVLECLASGIV [ILF3_62],55.34,39.78,-0.73
MPVSALHQFAQMQRVQLDLKETVTTGNVMGPYFAFCAVVDG [ADAD1_25],25.66,14.03,0.99
MPYERQQFESVEWYNNRNQDNYVSWSDSEDDDEDEEIEEKE [DICER1_98],52.37,37.74,-1.79
MQAHLAMGGGPGPGTDFTSDQADFPDTLFQEFEPPAPRPGL [ADARB2_50],51.37,40.11,0.65
MQPQTTINKEQFSKRKNDTLDPELFVECTECGRKMHQICVL [EP300_306],20.81,12.58,-0.25
MQQGTPGMALGSMGSVVKSEASSSPPVVTSSSHSRAPCQAG [SOX2_58],53.74,41.35,-0.36
MQVEQMEIPPVELPPEEPPNICQLIPELELLPEKEKEKEKE [RAD21_124],48.70,39.15,1.20
MQVTISVTSPLMREDPSTDPGVEEPQADAGDVLSPKKCLES [ZFR2_183],54.85,40.13,-0.70
MRFLYSELMKYNSQTAKDSIFEPAKGGEKLQIKKTVSFHLY [ADAR_231],65.21,56.37,0.14
